According to ChEMBL document CHEMBL5055679, “Discovery of a Novel Androgen Receptor Antagonist Manifesting Evidence to Disrupt the Dimerization of the Ligand-Binding Domain via Attenuating the Hydrogen-Bonding Network Between the Two Monomers” (J Med Chem, 2021):
Active and inactive are the calls of the source. No cut-off for these calls is given here.

Test system: GES1
Test: Cytotoxicity against human GES1 cells assessed as reduction in cell viability incubated for 72 hrs by MTT assay
Assay type: cell-based
Settings: ges1, 72 h

Compound	Activity
CNC(=O)c1ccc(N2C(=S)N(c3ccc(C#N)c(C(F)(F)F)c3)C(=O)C2(C)C)cc1F [ENZALUTAMIDE]	Non-Toxic

Target: T1, Androgen receptor (Homo sapiens, UniProt P10275)
T1 sequence (P10275 whole entry): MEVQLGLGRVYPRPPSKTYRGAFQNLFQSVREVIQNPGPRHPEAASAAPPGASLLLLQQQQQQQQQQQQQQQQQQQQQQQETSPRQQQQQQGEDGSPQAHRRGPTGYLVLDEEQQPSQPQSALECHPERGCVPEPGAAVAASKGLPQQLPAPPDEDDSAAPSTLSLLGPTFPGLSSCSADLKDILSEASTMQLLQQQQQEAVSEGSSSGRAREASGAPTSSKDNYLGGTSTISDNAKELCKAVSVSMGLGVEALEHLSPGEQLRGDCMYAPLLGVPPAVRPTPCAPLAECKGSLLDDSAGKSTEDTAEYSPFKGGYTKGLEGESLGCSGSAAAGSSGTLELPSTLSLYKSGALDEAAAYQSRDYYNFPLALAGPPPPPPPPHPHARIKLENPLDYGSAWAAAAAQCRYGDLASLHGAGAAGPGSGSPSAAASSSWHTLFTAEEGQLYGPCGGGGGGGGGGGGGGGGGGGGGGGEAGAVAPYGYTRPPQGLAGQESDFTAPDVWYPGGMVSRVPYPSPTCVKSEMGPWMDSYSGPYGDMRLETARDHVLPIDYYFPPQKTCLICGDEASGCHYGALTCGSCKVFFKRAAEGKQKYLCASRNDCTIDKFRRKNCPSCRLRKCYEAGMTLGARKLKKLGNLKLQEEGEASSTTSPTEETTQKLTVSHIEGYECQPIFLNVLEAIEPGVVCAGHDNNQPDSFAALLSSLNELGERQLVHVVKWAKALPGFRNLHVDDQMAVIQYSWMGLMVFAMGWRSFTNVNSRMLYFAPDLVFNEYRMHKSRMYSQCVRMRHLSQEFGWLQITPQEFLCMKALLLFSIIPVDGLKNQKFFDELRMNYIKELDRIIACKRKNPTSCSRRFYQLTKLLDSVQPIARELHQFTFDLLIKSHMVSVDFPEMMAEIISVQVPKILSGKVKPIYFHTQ
Settings: not given

Compound	IC50 [µM]
O=c1cc(C(F)(F)F)c2ccc(/N=C/c3ccccc3O)cc2o1	1.66

Target: T2, Androgen receptor (Homo sapiens) (UniProt P10275)
T2 sequence (whole entry): T1 sequence (P10275 whole entry)
Test: Binding affinity to GST-tagged AR ligand binding domain (unknown origin) at 10 uM measured after 4 hrs by fluorescence polarization assay
Settings: not given

Compound	Activity
Cc1ccc(NCc2ccccc2OCc2cccc3ccccc23)cc1	inactive
CC(C(=O)Nc1ccccc1Cl)c1ccc(-c2ccccc2)c(F)c1 (stereo not drawn)	inactive

Same assay, conditions: filed as antagonist

Compound	Activity
O=C1C2CC=CCC2C(=O)N1c1cccc(C(F)(F)F)c1 (stereo not drawn)	Active
O=c1cc(C(F)(F)F)c2ccc(/N=C/c3ccccc3O)cc2o1	Active

Test system: NIH3T3
Test: Cytotoxicity against mouse NIH3T3 cells assessed as reduction in cell viability incubated for 72 hrs by MTT assay
Assay type: cell-based
Settings: nih3t3, 72 h

Compound	Activity
CNC(=O)c1ccc(N2C(=S)N(c3ccc(C#N)c(C(F)(F)F)c3)C(=O)C2(C)C)cc1F [ENZALUTAMIDE]	Non-Toxic

Test system: LNCaP
Test: Inhibition of colony formation in human LANCaP cells after 2 weeks by crystal violet staining based assay
Assay type: functional, cell-based
Settings: dose 2-20 µM

Compound	inhibition
CNC(=O)c1ccc(N2C(=S)N(c3ccc(C#N)c(C(F)(F)F)c3)C(=O)C2(C)C)cc1F [ENZALUTAMIDE]	Dose-dependent effect

Species: Homo sapiens
Test: Antagonist activity at human androgen receptor N756A mutant at 10 uM by dual-Glo luciferase assay
Settings: filed as antagonist

Compound	Activity
CNC(=O)c1ccc(N2C(=S)N(c3cnc(C#N)c(C(F)(F)F)c3)C(=O)C23CCC3)cc1F	Active
CC(O)c1cc(C(=O)N[C@@H](C)Cn2ccc(-c3ccc(C#N)c(Cl)c3)n2)n[nH]1 (stereo partly drawn)	Active
CNC(=O)c1ccc(N2C(=S)N(c3ccc(C#N)c(C(F)(F)F)c3)C(=O)C2(C)C)cc1F [ENZALUTAMIDE]	Active

Target: T1, Androgen receptor
Test: Inhibition of AR transcriptional activity in human LNCaP cells harboring ARR2PB-eGFP assessed as decrease in PSA level
Assay type: cell-based, LN-18
Settings: not given

Compound	IC50 [µM]
O=c1cc(C(F)(F)F)c2ccc(/N=C/c3ccccc3O)cc2o1	3.71

Target: T1, Androgen receptor
Test: Inhibition of AR transcriptional activity in human LNCaP cells harboring ARR2PB-eGFP incubated for 72 hrs by fluorescence assay
Assay type: cell-based
Settings: not given

Compound	IC50 [µM]
O=c1cc(C(F)(F)F)c2ccc(OCc3ccc(Cl)cc3)cc2o1	1.04
NC(=O)c1ccc(COc2ccc3c(C(F)(F)F)cc(=O)oc3c2)cc1	> 50
COc1ccc([N+](=O)[O-])cc1COc1ccc2c(C(F)(F)F)cc(=O)oc2c1	> 50
O=C(c1ccccc1)c1ccc(/N=C/c2ccccc2O)cc1	> 50
C[C@H](Oc1cc(Cl)ccc1Cl)C(=O)Nc1ccc2c(C(F)(F)F)cc(=O)oc2c1	> 50
CCOC(=O)C(CC)Oc1ccc2c(C(F)(F)F)cc(=O)oc2c1 (stereo not drawn)	> 50
O=c1cc(C(F)(F)F)c2ccc(OCc3ccc4ccccc4c3)cc2o1	> 50
O=C(Nc1ccc2c(C(F)(F)F)cc(=O)oc2c1)c1ccccc1F	> 50
O=C(Nc1ccc2c(C(F)(F)F)cc(=O)oc2c1)c1cccc(Cl)c1	> 50
O=C(Nc1ccc2c(C(F)(F)F)cc(=O)oc2c1)c1ccccc1Cl	> 50
O=c1cc(C(F)(F)F)c2ccc(OCc3c(F)cccc3Cl)cc2o1	0.78
N#Cc1cccc(/N=C/c2ccccc2O)c1	> 50
COc1ccc(COc2ccc3c(C(F)(F)F)cc(=O)oc3c2)cc1	1.62
O=c1cc(C(F)(F)F)c2ccc(OCc3ccncc3)cc2o1	1.9
O=C(Oc1ccc2c(C(F)(F)F)cc(=O)oc2c1)C1CCCCC1	> 50
O=c1cc(C(F)(F)F)c2ccc(OCc3ccccc3F)cc2o1	0.92
O=C(Nc1ccc2c(C(F)(F)F)cc(=O)oc2c1)c1nc2ncccn2n1	> 50
O=c1cc(C(F)(F)F)c2ccc(OCc3ccccc3)cc2o1	1.18
Oc1ccccc1/C=N/c1ccc2oc(-c3ccccc3)nc2c1	> 50
O=c1cc(C(F)(F)F)c2ccc(OCc3cc4c(cc3Cl)OCO4)cc2o1	1.47
O=c1cc(C(F)(F)F)c2ccc(OCc3ccc4c(c3)OCO4)cc2o1	9.37
CC(C)c1ccc(COc2ccc3c(C(F)(F)F)cc(=O)oc3c2)cc1	9.26
Cc1cccc(COc2ccc3c(C(F)(F)F)cc(=O)oc3c2)c1	1.4
O=c1cc(C(F)(F)F)c2ccc(/N=C/c3ccccc3O)cc2o1	5.57

Compound	IC50 [µM]
Cc1ccc(COc2ccc3c(C(F)(F)F)cc(=O)oc3c2)cc1	0.61
CC(=O)c1ccc(COc2ccc3c(C(F)(F)F)cc(=O)oc3c2)cc1	> 50
O=c1cc(C(F)(F)F)c2ccc(OCc3cccc(Br)c3)cc2o1	2.28
O=c1cc(C(F)(F)F)c2ccc(OCc3ccc(OC(F)(F)F)cc3)cc2o1	25.1
O=C(Nc1ccc2c(C(F)(F)F)cc(=O)oc2c1)c1ccccc1	> 50
Cc1cccc(C(=O)Nc2ccc3c(C(F)(F)F)cc(=O)oc3c2)c1	> 50
O=c1cc(C(F)(F)F)c2ccc(OCc3ccc(C(F)(F)F)cc3)cc2o1	0.89
Cn1cc(C(=O)Nc2ccc3c(C(F)(F)F)cc(=O)oc3c2)c(Br)n1	> 50
O=c1cc(C(F)(F)F)c2ccc(OCc3cccnc3)cc2o1	> 50
COC(=O)C(CC(C)C)Oc1ccc2c(C(F)(F)F)cc(=O)oc2c1 (stereo not drawn)	> 50
O=c1cc(C(F)(F)F)c2ccc(OCc3ccccn3)cc2o1	> 50
COC(=O)c1ccc(COc2ccc3c(C(F)(F)F)cc(=O)oc3c2)cc1	30.7
Oc1ccccc1/C=N/c1ccc(Cl)c(Cl)c1	> 50
Cc1ccc(OC(=O)Nc2ccc3c(C(F)(F)F)cc(=O)oc3c2)c(C)c1	> 50
O=c1cc(C(F)(F)F)c2ccc(OCc3ccc([N+](=O)[O-])cc3)cc2o1	> 50
O=c1cc(C(F)(F)F)c2ccc(OCc3ccc(-c4ccccc4)cc3)cc2o1	> 50
O=c1cc(C(F)(F)F)c2ccc(OCc3ccccc3Br)cc2o1	0.94
CCn1cc(C(=O)Nc2ccc3c(C(F)(F)F)cc(=O)oc3c2)c(C)n1	> 50
O=c1cc(C(F)(F)F)c2ccc(OCc3ccc(F)cc3)cc2o1	0.47
Cc1ccc(/N=C/c2ccccc2O)cc1Br	> 50
Cn1cc(C(=O)Nc2ccc3c(C(F)(F)F)cc(=O)oc3c2)cn1	> 50
Cn1cc(C(=O)Nc2ccc3c(C(F)(F)F)cc(=O)oc3c2)c(I)n1	> 50
O=c1cc(C(F)(F)F)c2ccc(OCc3ccccc3Cl)cc2o1	0.41

Target: T2, Androgen receptor (Homo sapiens)
Test: Inhibition of AR transcriptional activity in human LNCaP cells harboring ARR2PB-eGFP at 10 uM incubated for 72 hrs by fluorescence assay
Assay type: cell-based
Settings: filed as antagonist

Compound	inhibition [%]
O=C1C2CC=CCC2C(=O)N1c1cccc(C(F)(F)F)c1 (stereo not drawn)	40
O=c1cc(C(F)(F)F)c2ccc(/N=C/c3ccccc3O)cc2o1	40
Cc1ccc(NCc2ccccc2OCc2cccc3ccccc23)cc1	40
CC(C(=O)Nc1ccccc1Cl)c1ccc(-c2ccccc2)c(F)c1 (stereo not drawn)	40
